Measurements reported in patent publication US12044684B2, “Methods for diagnosing an autistic spectrum disorder” (QATAR UNIVERSITY, priority 2018, dated 2024).

Assay: Renal clearance (CL) of free adducts and unmodified amino acids deduced from plasma and spot urine
Assay type: in vivo, human
Settings: children with ASD compared to healthy control; P<0.001
Excerpt: In one embodiment, renal clearance amino acid adducts is deduced from the concentration of an amino acid adduct detected in a plasma and urine sample according to the following equation: CL (μl/mg creatinine or ml/mg creatinine)=[Analyte]Urine (nmol/mg creatinine)/[Analyte]Plasma (pmol/ml or nmol/ml).
Oxidation, nitration and glycation adduct residues are normalised to their amino acid residue precursors and given as mmol/mol amino acid modified; and related free adducts are given in nM. […] Renal clearance (CL) of glycation, oxidation and nitration free adducts and unmodified amino acids was deduced from plasma and spot urine collections: CL (μl/mg creatinine or ml/mg creatinine)=[Analyte]Urine (nmol/mg creatinine)/[Analyte]Plasma (pmol/ml or nmol/ml).

Row | Structure (SMILES) | decrease in renal clearance (CL)
1 | N=C(N)NCCC[C@H](N)C(=O)O [arg, arginine] | 32%

Same assay, conditions: children with ASD with respect to healthy controls

Row | Structure (SMILES) | renal clearance, change
2 | NC(Cc1ccc(O)c(-c2cc(CC(N)C(=O)O)ccc2O)c1)C(=O)O (stereo not drawn) [DT, dityrosine] | decreased
3 | N[C@@H](CCCCN1C[C@@H](O)[C@@H](O)CC2NC(=NCCC[C@H](N)C(=O)O)N=C21)C(=O)O (stereo partly drawn) [GSP, glucosepane] | decreased
4 | NC(CC(=O)c1ccccc1NC=O)C(=O)O (stereo not drawn) [NFK, N-formylkynurenine] | increased
5 | N=C(N)NCCC[C@H](N)C(=O)O [arg, arginine] | decreased
6 | N[C@@H](CCC(=O)O)C(=O)O [glu, glutamate] | decreased
7 | CC(C)C[C@H](N)C(=O)O [leu, leucine] | decreased
8 | N[C@@H](Cc1ccccc1)C(=O)O [phe, phenylalanine] | decreased
9 | C[C@@H](O)[C@H](N)C(=O)O [thr, threonine] | decreased
10 | N[C@@H](Cc1c[nH]c2ccccc12)C(=O)O [trp, tryptophan] | increased

Same assay, conditions: in vivo

Row | Structure (SMILES) | decrease in renal clearance (CL) | renal clearance, change
11 | N=C(NCCC[C@H](N)C(=O)O)NCC(=O)O [CMA, Nω-carboxymethylarginine] | 50% | decreased
